Laboratory results from publication PMC11940309, “Endocrine-Disrupting Activities of Flavones on Steroid Receptors: Structural Requirements and Synthesis of Novel Flavone with Improved Estrogenic Activity” (Biomedicines, 2025).
Where two headings read alike, the source gives them in different places.

How the values were obtained:
[1] = system: estrogen receptor (ER); assay: ER-mediated luciferase reporter induction in T47D KBluc cells; assay type: cell-based, human; settings: relative to 1nM estradiol
Experimental: Experiments testing the effect of flavonoids on estrogen receptor-mediated transcription employed T47D KBluc cells. These cells were maintained in RPMI medium with 10% FBS, penicillin (100 U/mL), and streptomycin (100 μg/mL). For reporter gene experiments, cells were detached as above and replated at 50% confluency in phenol red-free RPMI media with 10% charcoal-stripped FBS and antibiotics (day one). All subsequent steps used phenol red-free medium and trypsin. On day three, the medium was replaced with fresh medium. On day five, cells were washed with PBSE, detached, resuspended, diluted, and replated in the phenol red-free RPMI with charcoal-stripped serum (50,000 cells per well as above).
(§1) For all cell lines, cell harvesting and the luminescence assay for alkaline phosphatase and/or luciferase were performed as previously described in detail. Each condition was performed in quadruplicate. […] Percent inhibition is 100 minus the percent induction.

[2] = target: T1, progesterone receptor (PR) (Homo sapiens, UniProt P06401); assay: PR-mediated induction of transcription by R5020 in T47D K5pLuc cells (luciferase reporter and endogenous alkaline phosphatase); assay type: cell-based; settings: for inhibition at 4 µM / inhibition at 8 µM: T47D; for inhibition at 4 µM / inhibition at 8 µM / % Inhibition of PR Induction: R5020 1.0 nM
T1 sequence (P06401 679-933 limits assumed): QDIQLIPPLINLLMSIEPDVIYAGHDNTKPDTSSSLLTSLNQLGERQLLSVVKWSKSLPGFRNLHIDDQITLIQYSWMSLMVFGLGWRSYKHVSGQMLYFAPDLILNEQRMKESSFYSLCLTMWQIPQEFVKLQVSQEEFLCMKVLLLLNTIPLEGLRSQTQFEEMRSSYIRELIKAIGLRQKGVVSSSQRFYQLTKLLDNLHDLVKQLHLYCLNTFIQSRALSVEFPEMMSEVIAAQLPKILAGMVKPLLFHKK
Source text: (§2) The engineered T47D breast cancer cell lines employed for the assessment of flavonoid activity on glucocorticoid receptor (GR) and progesterone receptor (PR) signaling permitted the facile quantitation transcription of both an endogenous gene and a stably integrated reporter gene. […] The T47D K5pLuc cell line responds to progestins via induction of a stably integrated cytokeratin 5-luciferase reporter gene. […] For assessment of the effect of the test compounds on androgen receptor (AR) signaling, we used the HeLa13 cell line engineered to stably express human AR and a PSA-luciferase reporter gene containing a 4× multimerized PSA upstream enhancer ARE1 linked to the E4 TATA box and luciferase gene.
Experiments testing the effect of flavonoids on progesterone receptor-mediated transcription employed T47D K5pluc cells. The protocol was the same as that for T47D (A1-2) cells except the medium was Dulbecco’s Modified Eagle’s Medium supplemented with 10% FBS, insulin (10 nM), puromycin 200 ng/mL, nonessential amino acids, penicillin (100 U/mL), and streptomycin (100 μg/mL). When treated with hormone, the synthetic progestin, R5020, was used at 1.0 nM. Hormone treatment was for 20 h at which time cells were harvested for assay of alkaline phosphatase and luciferase.
as §1

[3] = target: T2, human AR (Homo sapiens, UniProt P10275); assay: AR-mediated induction of PSA-luciferase reporter by R1881 in HeLa13 cells; assay type: cell-based; settings: for inhibition at 1 µM / inhibition at 4 µM: read-out: % Inhibition of AR-Mediated Gene Induction
T2 construct: expressed in transfected cells; host or cells: HeLa13 (HeLa 13)
T2 sequence (P10275 1-920): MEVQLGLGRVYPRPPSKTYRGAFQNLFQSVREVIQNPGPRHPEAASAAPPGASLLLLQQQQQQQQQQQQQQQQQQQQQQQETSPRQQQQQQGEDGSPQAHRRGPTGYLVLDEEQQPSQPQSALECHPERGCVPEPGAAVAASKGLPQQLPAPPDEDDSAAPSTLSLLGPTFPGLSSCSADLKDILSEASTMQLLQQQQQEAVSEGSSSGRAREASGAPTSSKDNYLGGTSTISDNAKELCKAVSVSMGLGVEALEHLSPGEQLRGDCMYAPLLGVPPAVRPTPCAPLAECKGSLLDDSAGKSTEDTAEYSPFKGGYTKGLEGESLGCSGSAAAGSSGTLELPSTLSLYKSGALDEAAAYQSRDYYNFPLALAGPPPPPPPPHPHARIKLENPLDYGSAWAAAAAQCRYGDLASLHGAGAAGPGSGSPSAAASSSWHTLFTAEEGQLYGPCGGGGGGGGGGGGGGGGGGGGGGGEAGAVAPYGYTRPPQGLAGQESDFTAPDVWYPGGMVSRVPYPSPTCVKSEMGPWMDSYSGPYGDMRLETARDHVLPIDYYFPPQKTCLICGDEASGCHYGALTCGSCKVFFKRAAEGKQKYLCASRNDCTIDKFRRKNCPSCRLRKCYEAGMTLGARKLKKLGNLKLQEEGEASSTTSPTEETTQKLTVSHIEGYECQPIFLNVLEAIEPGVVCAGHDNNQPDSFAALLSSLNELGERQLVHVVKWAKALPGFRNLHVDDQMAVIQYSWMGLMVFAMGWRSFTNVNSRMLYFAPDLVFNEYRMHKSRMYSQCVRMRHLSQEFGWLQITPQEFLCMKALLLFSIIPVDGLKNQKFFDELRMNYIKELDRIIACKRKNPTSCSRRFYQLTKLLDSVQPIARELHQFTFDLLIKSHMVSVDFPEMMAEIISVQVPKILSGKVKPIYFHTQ
Source text: as §2
Experiments testing the effect of flavonoid on androgen receptor-mediated transcription employed HeLa 13 cells maintained in MEM medium supplemented with 10% FBS, 0.5 mg/mL G418, 0.05 mg/mL Hygromycin B, […], and streptomycin (100 μg/mL). For reporter gene experiments, cells were replated at a 1:5 dilution in MEM medium with 5% charcoal-stripped FBS and the antibiotics mentioned above. The medium was changed the next day. After 48 h, the cells were washed with PBSE, detached with phenol red-free trypsin, pelleted, resuspended and plated in 96 well plates as above. Hormone and flavonoid treatments were performed as described above with the HeLa 13 medium and charcoal-stripped FBS. When treated with hormone, the synthetic androgen, R1881, was used at 1.0 nM. Hormone treatment was for 20 h at which time cells were harvested for assay of luciferase.
as §1

[4] = 4 µM, AP (alkaline phosphatase)
[5] = 8 µM, AP (alkaline phosphatase)

SMILES	inhibition at 4 µM [2, 4] [%]	inhibition at 4 µM ([2]; 4 µM, LUC (luciferase)) [%]	inhibition at 8 µM [2, 5] [%]	inhibition at 8 µM ([2]; 8 µM, LUC (luciferase)) [%]	inhibition at 1 µM ([3]; 1 µM, R1881 1.0 nM) [%]	inhibition at 4 µM ([3]; 4 µM, R1881 1.0 nM) [%]	IC50 ([3]; R1881, read-out: IC50, AR antagonism) [nM]	% Inhibition of PR Induction [2, 4] [%]	% Inhibition of PR Induction ([2]; 4 µM, LUC (luciferase)) [%]	% Inhibition of PR Induction [2, 5] [%]	% Inhibition of PR Induction ([2]; 8 µM, LUC (luciferase)) [%]	% Inhibition of AR-Mediated Gene Induction ([3]; 1 µM, R1881 1.0 nM) [%]	% Inhibition of AR-Mediated Gene Induction ([3]; 4 µM, R1881 1.0 nM) [%]	inhibition of PR-mediated gene expression of both reporter genes ([2]; 4.0 micromolar)	inhibition of PR-mediated gene expression of both reporter genes ([2]; 8.0 micromolar) [%]	IC50 ([2]; R5020, alkaline phosphatase and luciferase, read-out: IC50, inhibition of PR-mediated induction of gene expression) [nM]	% ER Induction ([1]; 1 µM) [%]	% ER Induction ([1]; 4 µM) [%]	inhibition at 1 µM [3] [%]	inhibition at 4 µM [3] [%]
O=c1cc(-c2ccc(O)cc2)oc2cc(O)ccc12 [7,4′-dihydroxyflavone]	41	-16	55	-49	–	–	–	–	–	–	–	–	–	–	–	–	86	140	-18	-20
O=c1cc(-c2cc(O)c(O)c(O)c2)oc2cc(O)cc(O)c12 [5,7,3′4′,5′-pentahydroxyflavone]	–	–	–	–	–	–	–	12	−97	45	−19	−8	24	–	–	–	0	−1	–	–
O=c1cc(-c2ccc(O)cc2)oc2ccccc12 [4′-hydroxyflavone]	31	-62	49	-81	29	65	–	–	–	–	–	–	–	–	–	–	12	130	–	–
O=c1cc(-c2ccc(O)c(O)c2)oc2cccc(O)c12 [5,3′,4′-trihydroxyflavone]	46	-7	65	55	–	–	–	–	–	–	–	–	–	–	–	–	0	13	29	91
O=C1CC(c2ccc(O)c(O)c2)Oc2cc(O)cc(O)c21 (stereo not drawn) [5,7,3′,4′-tetrahydroxyflavanone]	8	3	40	23	–	–	–	–	–	–	–	–	–	–	–	–	0	20	13	24
O=c1cc(-c2ccccc2)oc2ccccc12 [flavone]	10	-66	40	-107	-12	55	–	–	–	–	–	–	–	–	–	–	1	3	–	–
COc1ccc([C@@H]2CC(=O)c3c(O)cc(O)cc3O2)cc1O [5,7,3′-triOH, 4′methoxyflavanone]	8	-6	28	16	–	–	–	–	–	–	–	–	–	–	–	–	10	6	-28	-30

Now from value to molecule, other results behind:

inhibition at 4 µM [2, 4] [%]	inhibition at 4 µM ([2]; 4 µM, LUC (luciferase)) [%]	inhibition at 8 µM [2, 5] [%]	inhibition at 8 µM ([2]; 8 µM, LUC (luciferase)) [%]	inhibition at 1 µM ([3]; 1 µM, R1881 1.0 nM) [%]	inhibition at 4 µM ([3]; 4 µM, R1881 1.0 nM) [%]	IC50 ([3]; R1881, read-out: IC50, AR antagonism) [nM]	% Inhibition of PR Induction [2, 4] [%]	% Inhibition of PR Induction ([2]; 4 µM, LUC (luciferase)) [%]	% Inhibition of PR Induction [2, 5] [%]	% Inhibition of PR Induction ([2]; 8 µM, LUC (luciferase)) [%]	% Inhibition of AR-Mediated Gene Induction ([3]; 1 µM, R1881 1.0 nM) [%]	% Inhibition of AR-Mediated Gene Induction ([3]; 4 µM, R1881 1.0 nM) [%]	inhibition of PR-mediated gene expression of both reporter genes ([2]; 4.0 micromolar)	inhibition of PR-mediated gene expression of both reporter genes ([2]; 8.0 micromolar) [%]	IC50 ([2]; R5020, alkaline phosphatase and luciferase, read-out: IC50, inhibition of PR-mediated induction of gene expression) [nM]	SMILES	% ER Induction ([1]; 1 µM) [%]	% ER Induction ([1]; 4 µM) [%]	inhibition at 1 µM [3] [%]	inhibition at 4 µM [3] [%]
13	-11	39	-10	-6	11	–	–	–	–	–	–	–	–	–	–	O=c1cc(-c2ccc(O)c(O)c2)oc2cc(O)ccc12 [7,3′,4′-trihydroxyflavone]	0	30	–	–
39	-147	37	-103	43	54	–	–	–	–	–	–	–	–	–	–	O=c1cc(-c2ccc(O)cc2)oc2ccc(O)cc12 [6,4′-dihydroxyflavone]	119	192	–	–
23	-12	74	80	77	97	~500	–	–	–	–	–	–	–	–	–	O=c1cc(-c2ccc(O)cc2)oc2cccc(O)c12 [5,4′-dihydroxyflavone]	53	138	–	–
43	52	90	98	-17	9	–	–	–	–	–	–	–	–	–	–	O=C1CC(c2ccc(O)cc2)Oc2cc(O)cc(O)c21 (stereo not drawn) [5,7,4′-trihydroxyflavanone]	48	93	–	–
49	-96	32	–	55	22	–	–	–	–	–	–	–	–	–	–	O=c1c(-c2ccc(O)cc2)coc2cc(O)cc(O)c12 [5,7,4′-trihydroxyisoflavone]	125	180	–	–
82	76	95	95	-20	67	–	–	–	–	–	–	–	at least 70%	≥ 90	1000 to 2000	O=c1cc(-c2ccc(O)c(O)c2)oc2cc(O)cc(O)c12 [5,7,3′,4′-tetrahydroxyflavone]	3	80	–	–
41	-13	38	-126	–	24	–	–	–	–	–	–	–	–	–	–	O=c1c(-c2ccc(O)cc2)coc2cc(O)ccc12 [7,4′-dihydroxyisoflavone]	125	–	–	–
8	-64	27	-14	40	75	–	–	–	–	–	–	–	–	–	–	O=c1cc(-c2ccc(O)c(O)c2)oc2ccccc12 [3′,4′-dihydroxyflavone]	0	13	–	–
78	71	89	90	-13	46	–	–	–	–	–	–	–	at least 70%	≥ 90	–	O=c1cc(-c2ccccc2)oc2cc(O)cc(O)c12 [5,7-dihydroxyflavone]	–	–	–	–
